Literature values as cited in patent publication US20120263806A1, “Uses of North American Ginseng Fractions for Treating Leukemia” (priority 2007, published 2012).

What was measured:
[1] = tested on: Adriamycin (ADM)-resistant P388 leukemia cells (P388/ADM)
[2] = tested on: telomerase activity of K562 cells; details: at proper concentrations and exposure time

Row | Structure (SMILES) | Cytotoxicity of the anti-cancer drugs (DAU, VBL) in P388/ADM cells [1] | also measured
1 | CC(C)=CCC[C@](C)(O)[C@H]1CC[C@]2(C)[C@@H]1[C@H](O)C[C@@H]1[C@@]3(C)CC[C@H](O[C@@H]4O[C@H](CO)[C@@H](O)[C@H](O)[C@H]4O)C(C)(C)[C@@H]3CC[C@]12C [ginsenoside Rh2] | greatly enhanced | –
2 | CC(C)=CCC[C@](C)(O)[C@H]1CC[C@]2(C)[C@@H]1[C@H](O)C[C@@H]1[C@@]3(C)CC[C@H](O)C(C)(C)[C@@H]3[C@@H](O)C[C@]12C [20(8) protopanaxatriol] | greatly enhanced | –
3 | CC(C)=CC/C=C(/C)[C@H]1CC[C@]2(C)[C@@H]1[C@H](O)C[C@@H]1[C@@]3(C)CC[C@H](O)C(C)(C)[C@@H]3[C@@H](O)C[C@]12C [Quasipanaxatriol] | greatly enhanced | Resistance indices (ratios of IC50 values for P388/ADM and P388 parental cells) for DAU and VBL ([1]; 50 μM): decreased significantly
4 | CC(C)=CCC[C@](C)(O[C@@H]1O[C@H](CO)[C@@H](O)[C@H](O)[C@H]1O)[C@H]1CC[C@]2(C)[C@@H]1[C@H](O)C[C@@H]1[C@@]3(C)CC[C@H](O)C(C)(C)[C@@H]3CC[C@]12C [compound K] | greatly enhanced | –
5 | CC(C)=CCC[C@](C)(O)[C@H]1CC[C@]2(C)[C@@H]1[C@H](O)C[C@@H]1[C@@]3(C)CC[C@H](O[C@@H]4O[C@H](CO)[C@@H](O)[C@H](O)[C@H]4O[C@@H]4O[C@H](CO)[C@@H](O)[C@H](O)[C@H]4O)C(C)(C)[C@@H]3CC[C@]12C [Rg(3)] | – | TPA-induced activation of NF-kappaβ in HL-60 cells (NF-kappaβ): inhibited
6 | O=P1(N(CCCl)CCCl)NCCCO1 (stereo not shown) [CTX, cyclophosphamide] | – | Telomerase activity of K562 cells [2]: completely inhibit
